Results from paper PMC4268243 (Nuclear medicine and biology, 2014).

Experiments:
[1] = tested on: MDA MB468 estrogen-independent breast carcinoma cells; assay: Amino acid uptake and inhibition in MDA MB468 cells; assay type: cell-based, human; conditions: for Cell uptake: MDA MB468, 30 minutes incubation
[2] = tested on: A549 tumor xenograft; assay: Biodistribution in A549 tumor-bearing SCID mice; assay type: in vivo; conditions: listed as (S)-[^18F]FAMP 1
[3] = tested on: U87 tumor xenograft; assay: Biodistribution in U87 tumor-bearing SCID mice; assay type: in vivo; conditions: listed as (S)-[^18F]FAMP 1
[4] = tested on: human A549, DU145, U87, MDA MB468 and SKOV3 tumor cells; assay: Amino acid uptake and inhibition, summary over the five tumor cell lines; assay type: cell-based
[5] = tested on: rat orthotopic brain tumor model; conditions: rat orthotopic brain tumor model, 60 min; cited from earlier work

SMILES: CC(N)(C[18F])C(=O)O [(S)-[^18F]1] [2-amino-3-[^18F]fluoro-2-methylpropanoic acid]
- Cell uptake ([1]; 10 mM BCH): 2.2±0.1 % ID/5×10^5 cells
- Cell uptake ([1]; 10 mM MeAIB): 3.5±0.2 % ID/5×10^5 cells
- Cell uptake ([1]; Control (no inhibitor)): 3.4±0.3 % ID/5×10^5 cells
- inhibition of uptake by MeAIB ([1]; MDA MB468 cells, 10 mM MeAIB): no significant MeAIB inhibition
- uptake in blood ([2]; 15 min post injection): 3.9±0.6 %ID/g
- uptake in bone ([2]; 15 min post injection): 2.6±0.8 %ID/g
- uptake in brain ([2]; 15 min post injection): 0.5±0.1 %ID/g
- uptake in heart ([2]; 15 min post injection): 3.2±0.7 %ID/g
- uptake in kidney ([2]; 15 min post injection): 29±5.7 %ID/g
- uptake in liver ([2]; 15 min post injection): 3.7±0.5 %ID/g
- uptake in lung ([2]; 15 min post injection): 5.5±2.0 %ID/g
- uptake in muscle ([2]; 15 min post injection): 3.3±0.7 %ID/g
- uptake in pancreas ([2]; 15 min post injection): 42±8.4 %ID/g
- uptake in spleen ([2]; 15 min post injection): 9.0±3.0 %ID/g
- uptake in tumor ([2]; 15 min post injection): 6.7±1.7 %ID/g
- uptake in blood ([2]; 30 min post injection): 3.1±0.6 %ID/g
- uptake in bone ([2]; 30 min post injection): 2.5±0.6 %ID/g
- uptake in brain ([2]; 30 min post injection): 0.6±0.1 %ID/g
- uptake in heart ([2]; 30 min post injection): 3.3±0.4 %ID/g
- uptake in kidney ([2]; 30 min post injection): 21±6.9 %ID/g
- uptake in liver ([2]; 30 min post injection): 3.8±0.6 %ID/g
- uptake in lung ([2]; 30 min post injection): 4.3±1.7 %ID/g
- uptake in muscle ([2]; 30 min post injection): 3.0±0.8 %ID/g
- uptake in pancreas ([2]; 30 min post injection): 39±8.2 %ID/g
- uptake in spleen ([2]; 30 min post injection): 8.4±1.7 %ID/g
- uptake in tumor ([2]; 30 min post injection): 7.9±1.0 %ID/g
- uptake in blood ([2]; 60 min post injection): 2.3±0.1 %ID/g
- uptake in bone ([2]; 60 min post injection): 2.7±0.6 %ID/g
- uptake in brain ([2]; 60 min post injection): 0.8±0.1 %ID/g
- uptake in heart ([2]; 60 min post injection): 3.0±0.4 %ID/g
- uptake in kidney ([2]; 60 min post injection): 17±1.4 %ID/g
- uptake in liver ([2]; 60 min post injection): 3.5±0.4 %ID/g
- uptake in lung ([2]; 60 min post injection): 2.8±1.3 %ID/g
- uptake in muscle ([2]; 60 min post injection): 2.9±0.6 %ID/g
- uptake in pancreas ([2]; 60 min post injection): 33±6.1 %ID/g
- uptake in spleen ([2]; 60 min post injection): 6.5±1.1 %ID/g
- uptake in tumor ([2]; 60 min post injection): 8.3±1.0 %ID/g
- uptake in blood ([2]; 120 min post injection): 2.0±0.4 %ID/g
- uptake in bone ([2]; 120 min post injection): 2.0±0.5 %ID/g
- uptake in brain ([2]; 120 min post injection): 0.8±0.1 %ID/g
- uptake in heart ([2]; 120 min post injection): 2.7±0.8 %ID/g
- uptake in kidney ([2]; 120 min post injection): 14±1.8 %ID/g
- uptake in liver ([2]; 120 min post injection): 2.8±0.4 %ID/g
- uptake in lung ([2]; 120 min post injection): 3.1±0.9 %ID/g
- uptake in muscle ([2]; 120 min post injection): 2.3±0.4 %ID/g
- uptake in pancreas ([2]; 120 min post injection): 29±2.3 %ID/g
- uptake in spleen ([2]; 120 min post injection): 6.0±1.7 %ID/g
- uptake in tumor ([2]; 120 min post injection): 6.5±0.8 %ID/g
- uptake in blood ([3]; 15 min post injection): 3.5±0.4 %ID/g
- uptake in bone ([3]; 15 min post injection): 2.4±0.7 %ID/g
- uptake in brain ([3]; 15 min post injection): 0.5±0.1 %ID/g
- uptake in heart ([3]; 15 min post injection): 3.1±0.4 %ID/g
- uptake in kidney ([3]; 15 min post injection): 37±4.9 %ID/g
- uptake in liver ([3]; 15 min post injection): 6.6±2.0 %ID/g
- uptake in lung ([3]; 15 min post injection): 4.6±0.6 %ID/g
- uptake in muscle ([3]; 15 min post injection): 3.3±0.7 %ID/g
- uptake in pancreas ([3]; 15 min post injection): 48±11 %ID/g
- uptake in spleen ([3]; 15 min post injection): 11±2.7 %ID/g
- uptake in tumor ([3]; 15 min post injection): 6.4±1.3 %ID/g
- uptake in blood ([3]; 30 min post injection): 3.7±0.7 %ID/g
- uptake in bone ([3]; 30 min post injection): 2.1±0.5 %ID/g
- uptake in brain ([3]; 30 min post injection): 0.6±0.1 %ID/g
- uptake in heart ([3]; 30 min post injection): 3.1±0.4 %ID/g
- uptake in kidney ([3]; 30 min post injection): 28±5.2 %ID/g
- uptake in liver ([3]; 30 min post injection): 6.0±1.0 %ID/g
- uptake in lung ([3]; 30 min post injection): 3.6±0.5 %ID/g
- uptake in muscle ([3]; 30 min post injection): 3.3±0.3 %ID/g
- uptake in pancreas ([3]; 30 min post injection): 50±8.7 %ID/g
- uptake in spleen ([3]; 30 min post injection): 10±1.0 %ID/g
- uptake in tumor ([3]; 30 min post injection): 6.8±0.8 %ID/g
- uptake in blood ([3]; 60 min post injection): 2.1±0.4 %ID/g
- uptake in bone ([3]; 60 min post injection): 2.0±0.1 %ID/g
- uptake in brain ([3]; 60 min post injection): 0.6±0.1 %ID/g
- uptake in heart ([3]; 60 min post injection): 2.8±0.7 %ID/g
- uptake in kidney ([3]; 60 min post injection): 15±3.3 %ID/g
- uptake in liver ([3]; 60 min post injection): 4.4±0.6 %ID/g
- uptake in lung ([3]; 60 min post injection): 2.6±0.8 %ID/g
- uptake in muscle ([3]; 60 min post injection): 2.3±0.3 %ID/g
- uptake in pancreas ([3]; 60 min post injection): 32±11 %ID/g
- uptake in spleen ([3]; 60 min post injection): 6.1±1.1 %ID/g
- uptake in tumor ([3]; 60 min post injection): 4.4±0.8 %ID/g
- uptake in blood ([3]; 120 min post injection): 1.2±0.5 %ID/g
- uptake in bone ([3]; 120 min post injection): 1.0±0.3 %ID/g
- uptake in brain ([3]; 120 min post injection): 0.7±0.2 %ID/g
- uptake in heart ([3]; 120 min post injection): 2.1±0.3 %ID/g
- uptake in kidney ([3]; 120 min post injection): 7.3±1.4 %ID/g
- uptake in liver ([3]; 120 min post injection): 4.1±1.3 %ID/g
- uptake in lung ([3]; 120 min post injection): 1.5±0.4 %ID/g
- uptake in muscle ([3]; 120 min post injection): 1.3±0.3 %ID/g
- uptake in pancreas ([3]; 120 min post injection): 18±6.4 %ID/g
- uptake in spleen ([3]; 120 min post injection): 3.4±1.1 %ID/g
- uptake in tumor ([3]; 120 min post injection): 2.8±0.4 %ID/g
- inhibition of uptake by BCH ([4]; 10 mM BCH, relative to control, most cell lines): 36-68%
- inhibition of uptake by MeAIB ([4]; 10 mM MeAIB, relative to control, most cell lines): 10-32%
- uptake in tumor cells ([4]; 30 minutes incubation, without inhibitors, range over the cell lines): 2-5 %ID/5×10^5 cells
- amino acid transport system mediating uptake / selectivity ([4]; AAT cell inhibition assays with MeAIB and BCH): mixed AATs, likely but not limited to system A and system L
- brain uptake [5]: 0.06±0.01 %ID/g
